Test [1] has as its target T1, Toll-like receptor 8 (Homo sapiens) (UniProt Q9NR97).
T1 sequence (whole entry): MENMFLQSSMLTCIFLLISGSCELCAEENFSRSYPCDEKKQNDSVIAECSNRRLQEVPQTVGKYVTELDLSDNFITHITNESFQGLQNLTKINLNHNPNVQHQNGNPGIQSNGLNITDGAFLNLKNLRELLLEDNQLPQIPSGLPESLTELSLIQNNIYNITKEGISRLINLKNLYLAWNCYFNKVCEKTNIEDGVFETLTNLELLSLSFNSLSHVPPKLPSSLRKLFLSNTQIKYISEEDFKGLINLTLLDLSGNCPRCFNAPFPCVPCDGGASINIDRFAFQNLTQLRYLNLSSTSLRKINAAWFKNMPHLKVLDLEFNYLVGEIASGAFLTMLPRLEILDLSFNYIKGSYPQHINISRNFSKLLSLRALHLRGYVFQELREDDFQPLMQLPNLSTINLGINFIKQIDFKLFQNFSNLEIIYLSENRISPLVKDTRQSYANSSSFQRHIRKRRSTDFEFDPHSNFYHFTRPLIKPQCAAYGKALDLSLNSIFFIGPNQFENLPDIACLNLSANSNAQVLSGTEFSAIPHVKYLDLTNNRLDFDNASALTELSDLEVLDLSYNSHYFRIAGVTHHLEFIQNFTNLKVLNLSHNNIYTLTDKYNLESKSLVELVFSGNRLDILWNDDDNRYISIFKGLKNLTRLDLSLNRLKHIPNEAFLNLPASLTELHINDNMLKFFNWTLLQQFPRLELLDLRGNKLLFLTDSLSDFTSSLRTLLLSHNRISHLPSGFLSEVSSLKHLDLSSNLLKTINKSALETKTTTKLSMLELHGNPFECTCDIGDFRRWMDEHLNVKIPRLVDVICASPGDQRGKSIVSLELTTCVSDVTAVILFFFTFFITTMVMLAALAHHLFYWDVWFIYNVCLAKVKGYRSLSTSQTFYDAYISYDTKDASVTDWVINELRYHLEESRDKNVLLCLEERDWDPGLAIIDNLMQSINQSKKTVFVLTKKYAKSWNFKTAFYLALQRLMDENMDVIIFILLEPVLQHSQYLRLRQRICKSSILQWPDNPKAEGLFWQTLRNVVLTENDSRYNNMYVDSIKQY
In words: Agonist activity at human TLR8 expressed in HEK293 cells co-transfected with MD2 and sAP assessed as induction of NF-kappaB activity by reporter gene assay. The class given is cell-based.

The target in test [2] is T2, Nucleotide-binding oligomerization domain-containing protein 1 (Homo sapiens) (UniProt Q9Y239).
T2 sequence (whole entry): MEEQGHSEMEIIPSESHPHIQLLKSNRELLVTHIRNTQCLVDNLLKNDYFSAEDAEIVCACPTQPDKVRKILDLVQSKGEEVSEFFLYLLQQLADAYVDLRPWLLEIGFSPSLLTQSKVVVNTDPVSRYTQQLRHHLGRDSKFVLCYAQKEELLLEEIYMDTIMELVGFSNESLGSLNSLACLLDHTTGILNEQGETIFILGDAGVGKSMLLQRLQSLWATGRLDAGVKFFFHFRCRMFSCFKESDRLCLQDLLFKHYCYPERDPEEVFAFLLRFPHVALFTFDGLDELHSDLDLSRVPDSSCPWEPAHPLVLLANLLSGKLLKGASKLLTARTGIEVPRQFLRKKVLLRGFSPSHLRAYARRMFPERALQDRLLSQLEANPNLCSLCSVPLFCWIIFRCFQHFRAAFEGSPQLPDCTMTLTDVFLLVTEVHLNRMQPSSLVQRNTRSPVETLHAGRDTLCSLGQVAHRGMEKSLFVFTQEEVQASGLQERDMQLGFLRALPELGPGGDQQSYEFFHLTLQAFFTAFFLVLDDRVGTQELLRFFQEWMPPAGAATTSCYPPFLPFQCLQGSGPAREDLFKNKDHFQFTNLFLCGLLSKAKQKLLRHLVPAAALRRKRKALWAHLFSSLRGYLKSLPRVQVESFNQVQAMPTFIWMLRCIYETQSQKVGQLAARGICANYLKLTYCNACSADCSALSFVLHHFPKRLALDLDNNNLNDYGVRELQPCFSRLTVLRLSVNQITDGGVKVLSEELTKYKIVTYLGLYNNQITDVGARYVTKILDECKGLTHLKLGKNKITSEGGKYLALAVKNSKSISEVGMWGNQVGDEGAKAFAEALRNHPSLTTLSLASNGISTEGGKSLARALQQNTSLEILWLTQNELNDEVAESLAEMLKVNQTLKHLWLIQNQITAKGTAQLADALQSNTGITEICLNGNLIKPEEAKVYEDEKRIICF
Kind of test: Modulation of NOD1 (unknown origin).

The target in test [3] is Nucleotide-binding oligomerization domain-containing protein 2 (Homo sapiens) (UniProt Q9HC29). In words: Modulation of NOD2 (unknown origin).
For test [4], the target named is T3, Toll-like receptor 9 (Homo sapiens) (UniProt Q9NR96).
T3 sequence (whole entry): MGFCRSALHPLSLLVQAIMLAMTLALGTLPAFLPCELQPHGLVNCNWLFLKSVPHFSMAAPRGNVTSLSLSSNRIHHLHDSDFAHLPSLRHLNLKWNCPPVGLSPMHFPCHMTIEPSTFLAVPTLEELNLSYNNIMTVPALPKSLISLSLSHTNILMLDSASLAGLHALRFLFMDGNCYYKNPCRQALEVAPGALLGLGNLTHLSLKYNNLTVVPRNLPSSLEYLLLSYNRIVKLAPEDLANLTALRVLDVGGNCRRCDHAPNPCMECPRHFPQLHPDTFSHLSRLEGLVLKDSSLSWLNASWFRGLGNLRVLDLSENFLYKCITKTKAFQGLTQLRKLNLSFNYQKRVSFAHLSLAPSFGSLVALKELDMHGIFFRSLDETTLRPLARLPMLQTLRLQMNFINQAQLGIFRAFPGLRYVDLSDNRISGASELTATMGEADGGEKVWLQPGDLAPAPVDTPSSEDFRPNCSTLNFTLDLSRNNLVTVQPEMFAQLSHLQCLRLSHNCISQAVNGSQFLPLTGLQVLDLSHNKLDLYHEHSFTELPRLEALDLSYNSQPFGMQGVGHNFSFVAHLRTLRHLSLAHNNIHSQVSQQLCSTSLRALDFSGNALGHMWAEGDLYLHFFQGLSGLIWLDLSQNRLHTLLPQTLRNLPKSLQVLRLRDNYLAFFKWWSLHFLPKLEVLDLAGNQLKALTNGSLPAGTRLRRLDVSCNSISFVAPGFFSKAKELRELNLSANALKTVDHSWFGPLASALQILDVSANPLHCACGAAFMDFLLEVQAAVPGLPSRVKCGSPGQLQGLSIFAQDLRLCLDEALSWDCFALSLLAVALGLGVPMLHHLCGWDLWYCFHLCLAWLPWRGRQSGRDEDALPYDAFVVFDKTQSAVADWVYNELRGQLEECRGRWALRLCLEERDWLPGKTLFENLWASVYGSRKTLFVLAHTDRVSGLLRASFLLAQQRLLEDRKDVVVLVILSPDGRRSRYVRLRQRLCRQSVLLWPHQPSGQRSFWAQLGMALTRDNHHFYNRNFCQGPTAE
Kind of test: Modulation of human TLR9 expressed in HEK293 cells co-transfected with MD2 and sAP assessed as induction of NF-kappaB activity by reporter gene assay. The class given is cell-based.

Test [5] deals with T1, Toll-like receptor 8 (Homo sapiens). In words: Modulation of human TLR8 expressed in HEK293 cells co-transfected with MD2 and sAP assessed as induction of NF-kappaB activity by reporter gene assay. Format: cell-based.
Test [6] shares this target. In words: Agonist activity at TLR8 in human PBMC assessed as increase of GRO level after 12 hrs.
The target is the same in test [7]. Kind of test: Agonist activity at TLR8 in human PBMC assessed as increase of MIP1beta level after 12 hrs.
Test [8] shares this target. Kind of test: Agonist activity at TLR8 in human PBMC assessed as increase of G-CSF level after 12 hrs.
The target is the same in test [9]. Kind of test: Agonist activity at TLR8 in human PBMC assessed as increase of MIP1alpha level after 12 hrs.

SMILES strings stand for the structures. Calls of active or inactive are those of the source. The calls are words filed in the database; no cut-off is given here.

Sequence of Nucleotide-binding oligomerization domain-containing protein 2 (Homo sapiens) (Q9HC29 whole entry, the tested form may be a part): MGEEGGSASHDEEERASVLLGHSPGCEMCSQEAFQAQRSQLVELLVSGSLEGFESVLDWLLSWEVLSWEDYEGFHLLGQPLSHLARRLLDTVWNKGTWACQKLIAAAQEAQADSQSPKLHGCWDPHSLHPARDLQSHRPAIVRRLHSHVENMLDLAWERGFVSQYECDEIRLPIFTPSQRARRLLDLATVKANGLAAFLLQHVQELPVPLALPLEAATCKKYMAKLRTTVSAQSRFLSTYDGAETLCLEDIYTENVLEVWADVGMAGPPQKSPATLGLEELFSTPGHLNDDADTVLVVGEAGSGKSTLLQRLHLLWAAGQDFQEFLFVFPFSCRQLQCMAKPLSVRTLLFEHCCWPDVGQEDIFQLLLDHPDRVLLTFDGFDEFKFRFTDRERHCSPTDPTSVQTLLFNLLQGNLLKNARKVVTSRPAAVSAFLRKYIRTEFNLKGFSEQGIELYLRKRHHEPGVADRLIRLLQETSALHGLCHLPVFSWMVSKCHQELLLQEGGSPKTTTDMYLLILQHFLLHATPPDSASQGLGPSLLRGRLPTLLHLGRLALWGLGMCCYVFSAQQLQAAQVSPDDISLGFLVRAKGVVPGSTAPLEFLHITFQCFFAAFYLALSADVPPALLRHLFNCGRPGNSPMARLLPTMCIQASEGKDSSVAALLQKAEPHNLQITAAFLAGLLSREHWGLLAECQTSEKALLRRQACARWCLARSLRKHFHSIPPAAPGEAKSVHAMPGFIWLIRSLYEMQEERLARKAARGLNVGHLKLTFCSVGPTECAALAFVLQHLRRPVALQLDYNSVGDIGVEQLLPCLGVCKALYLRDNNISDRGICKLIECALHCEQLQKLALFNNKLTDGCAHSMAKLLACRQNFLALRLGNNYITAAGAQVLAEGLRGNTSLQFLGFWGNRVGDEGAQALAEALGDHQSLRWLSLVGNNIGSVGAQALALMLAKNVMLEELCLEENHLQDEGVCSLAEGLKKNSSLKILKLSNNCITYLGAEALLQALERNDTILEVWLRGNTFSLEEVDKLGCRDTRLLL

`Nc1nc2ccccc2c2ccoc12`: in [1], the result was inactive.

As to `CCCCc1cc2c(o1)c(N)nc1ccccc12`, the outcome in [2], in test [3] and in [4] was Active.

Regarding `CCCc1cc2c(o1)c(N)nc1ccccc12`, the outcome in [1] and in [5] was Active.

For the compound `CCCCCCc1cc2c(o1)c(N)nc1ccccc12`, the outcome in test [1] and in test [5] was Active.

Regarding `CCCCc1nc2c(N)nc3ccccc3c2n1Cc1ccccc1`, the outcome in test [6], in test [7], in [8] and in test [9] was inactive.

As for `CCCc1nc2c(N)nc3ccccc3c2s1`, the result in test [6], in test [7], in test [8] and in test [9] was Active.

For `Cc1cc2c(o1)c(N)nc1ccccc12`, the outcome in [1] and in [5] was Active.

On to `CCCCCc1cc2c(o1)c(N)nc1ccccc12`, for which the result in [1] and in test [5] was Active.
